US20240293423A1, “STAT DEGRADERS AND USES THEREOF” (Kymera Therapeutics, Inc., priority 2020, published 2024)

Target: T1, STAT3 (Homo sapiens, UniProt P40763)
T1 construct: expressed in transfected cells; host or cells: A549
Test: STAT3 HiBiT degradation assay in transfected A549 cells
Type: cell-based
Conditions: 24 h compound incubation, Nano-Glo HiBiT lytic detection, read-out: Cell: STAT3 HiBit A549 degradation 24 h GMean External Abs-DC50
Protocol: Compound preparation and Cell seeding: The transfected A549 cells were harvested from dish into cell culture medium and cell numbers counted. Cells were diluted with culture medium to the desired density and 30 μL of cell suspension (about 2000 cells/well) were added into each well of a 384-well cell culture plate as designated and transferred into 37° C. 5% CO2 incubator for 24 h. Compounds were dissolved to 10 mM stock solution and 12 μL of the stock solution was transferred to a 384 LDV-plate. 3 fold, 10-point dilution was performed by transferring 4 μL compound into 8 μL DMSO using a TECAN (EVO200) liquid handler. 30 μL of diluted compound from compound source plate was transferred into the cell plate as designated by using Echo550 and transferred into 37° C. 5% CO2 incubator for 24 h.
Detection: Plates were removed from incubators and equilibrated at room temperature for 15 minutes. Nano-Glo Hibit Lytic Detection reagent (Promega Cat #N3040) was thawed and equilibrated to room temperature before the experiment. 30 μL of Nano-Glo Hibit Lytic Detection reagent was added into each well to be detected. The plates were held at room temperature for 10 min followed by reading on EnSpire.
Data analysis: The remaining activity was calculated following the formula: Remaining Activity (%)=100%×(Lumsample−LumNC)/(LumPC−LumNC). Calculate the IC50 by fitting the curve using Xlfit (v5.3.1.3), equation 201: fit=(A+((B−A)/(1+((x/C)^D)))); A: Botton; B: Top; C: IC50; and D: Slope.
The letter codes for STAT3 DC50 include: A (<0.05 μM), B (0.05-0.2 μM), C (0.2-1.0 μM), and D (>1.0 μM).

T1 sequence (P40763 whole entry): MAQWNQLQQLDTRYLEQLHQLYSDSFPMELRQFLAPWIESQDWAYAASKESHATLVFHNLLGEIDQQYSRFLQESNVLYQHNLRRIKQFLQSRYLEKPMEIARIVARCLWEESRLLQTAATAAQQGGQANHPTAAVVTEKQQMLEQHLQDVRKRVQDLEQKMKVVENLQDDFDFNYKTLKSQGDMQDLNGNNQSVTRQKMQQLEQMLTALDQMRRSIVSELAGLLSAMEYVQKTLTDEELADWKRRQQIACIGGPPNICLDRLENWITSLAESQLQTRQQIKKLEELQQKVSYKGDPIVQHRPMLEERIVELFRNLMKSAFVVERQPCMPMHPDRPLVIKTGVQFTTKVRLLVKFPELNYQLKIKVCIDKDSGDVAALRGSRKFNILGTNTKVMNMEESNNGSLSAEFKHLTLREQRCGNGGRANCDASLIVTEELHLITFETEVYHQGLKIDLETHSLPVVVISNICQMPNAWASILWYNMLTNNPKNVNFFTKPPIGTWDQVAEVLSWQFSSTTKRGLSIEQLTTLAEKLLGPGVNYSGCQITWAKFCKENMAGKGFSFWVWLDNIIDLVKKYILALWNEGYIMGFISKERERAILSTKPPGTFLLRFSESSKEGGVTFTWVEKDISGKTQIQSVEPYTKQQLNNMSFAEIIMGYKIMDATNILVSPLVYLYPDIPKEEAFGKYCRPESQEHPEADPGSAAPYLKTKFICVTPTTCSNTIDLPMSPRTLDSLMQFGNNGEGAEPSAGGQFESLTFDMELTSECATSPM

| SMILES | DC50 [nM] |
| --- | --- |
| COC(=O)N1CC[C@H]2CC[C@@H](C(=O)N[C@@H](CCC(N)=O)C(=O)N[C@@H](Cc3ccc(F)c(F)c3)C(=O)N3CCC(CCC#Cc4ccc5c(c4)n(C)c(=O)n5C4CCC(=O)NC4=O)CC3)N2C(=O)[C@@H](NC(=O)c2cc3cc(C(F)(F)P(=O)(O)O)ccc3s2)C1 (stereo partly shown) [Compound I-1] | < 50 |
| COC(=O)N1CC[C@H]2CC[C@@H](C(=O)N[C@@H](CCC(N)=O)C(=O)N[C@@H](Cc3ccc(F)c(F)c3)C(=O)N3CCC(CCCc4ccc5c(c4)n(C)c(=O)n5C4CCC(=O)NC4=O)CC3)N2C(=O)[C@@H](NC(=O)c2cc3cc(C(F)(F)P(=O)(O)O)ccc3s2)C1 (stereo partly drawn) [Compound I-2, (2-{[(5S,8S,10aR)-8-{[(1S)-3-carbamoyl-1-{[(2S)-3-(3,4-difluorophenyl)-1-(4-{3-[1-(2,6-dioxopiperidin-3-yl)-3-methyl-2-oxo-1,3-benzodiazol-5-yl]propyl}piperidin-1-yl)-1-oxopropan-2-yl]carbamoyl}propyl]carbamoyl}-3-(methoxycarbonyl)-6-oxo-octahydropyrrolo[1,2-a][1,5]diazocin-5-yl]carbamoyl}-1-benzothiophen-5-yl)difluoromethylphosphonic acid] | < 50 |
| COC(=O)N1CC[C@H]2CC[C@@H](C(=O)N[C@@H](CCC(N)=O)C(=O)N[C@@H](Cc3ccc(F)c(F)c3)C(=O)N3CCC(CCCc4cccc5c4n(C)c(=O)n5C4CCC(=O)NC4=O)CC3)N2C(=O)[C@@H](NC(=O)c2cc3cc(C(F)(F)P(=O)(O)O)ccc3s2)C1 (stereo partly shown) [Compound I-3] | < 50 |
| COC(=O)N1CC[C@H]2CC[C@@H](C(=O)N[C@@H](CCC(N)=O)C(=O)N[C@@H](Cc3ccc(F)c(F)c3)C(=O)N3CCC(CCC#Cc4ccc5c(c4)n(C)c(=O)n5C4CCC(=O)NC4=O)CC3)N2C(=O)[C@@H](NC(=O)c2cc3cc(C(=O)P(=O)(O)O)ccc3[nH]2)C1 (stereo partly shown) [Compound I-4] | 200 to 1000 |
| COC(=O)N1CC[C@H]2CC[C@@H](C(=O)N[C@@H](CCC(N)=O)C(=O)N[C@@H](Cc3ccc(F)c(F)c3)C(=O)N3CCC(CCCc4ccc5c(c4)n(C)c(=O)n5C4CCC(=O)NC4=O)CC3)N2C(=O)[C@@H](NC(=O)c2cc3cc(C(=O)P(=O)(O)O)ccc3[nH]2)C1 (stereo partly drawn) [Compound I-5, 2-[[(5S,8S,10aR)-8-[[(1S)-3-carbamoyl-1-[[(2S)-3-(3,4-difluorophenyl)-1-(4-[3-[1-(2,6-dioxopiperidin-3-yl)-3-methyl-2-oxo-1,3-benzodiazol-5-yl]propyl]piperidin-1-yl)-1-oxopropan-2-yl]carbamoyl]propyl]carbamoyl]-3-(methoxycarbonyl)-6-oxo-octahydropyrrolo[1,2-a][1,5]diazocin-5-yl]carbamoyl]-1H-indole-5-carbonylphosphonic acid] | 50 to 200 |
| COC(=O)N1CC[C@H]2CC[C@@H](C(=O)N[C@@H](CCC(N)=O)C(=O)N[C@@H](Cc3ccc(F)c(F)c3)C(=O)N3CCC(CCCc4cccc5c4n(C)c(=O)n5C4CCC(=O)NC4=O)CC3)N2C(=O)[C@@H](NC(=O)c2cc3cc(C(=O)P(=O)(O)O)ccc3[nH]2)C1 (stereo partly shown) [Compound I-6] | 200 to 1000 |
| CC(=O)N1CC[C@H]2CC[C@@H](C(=O)N[C@@H](CCC(N)=O)C(=O)N[C@@H](Cc3ccc(F)c(F)c3)C(=O)N3CCC(CCC#Cc4ccc5c(c4)n(C)c(=O)n5C4CCC(=O)NC4=O)CC3)N2C(=O)[C@@H](NC(=O)c2cc3cc(C(=O)P(=O)(O)O)ccc3[nH]2)C1 (stereo partly shown) [Compound I-7] | 200 to 1000 |
| CC(=O)N1CC[C@H]2CC[C@@H](C(=O)N[C@@H](CCC(N)=O)C(=O)N[C@@H](Cc3ccc(F)c(F)c3)C(=O)N3CCC(CCCc4ccc5c(c4)n(C)c(=O)n5C4CCC(=O)NC4=O)CC3)N2C(=O)[C@@H](NC(=O)c2cc3cc(C(=O)P(=O)(O)O)ccc3[nH]2)C1 (stereo partly shown) [Compound I-8] | > 1000 |
| CC(=O)N1CC[C@H]2CC[C@@H](C(=O)N[C@@H](CCC(N)=O)C(=O)N[C@@H](Cc3ccc(F)c(F)c3)C(=O)N3CCC(CCCc4cccc5c4n(C)c(=O)n5C4CCC(=O)NC4=O)CC3)N2C(=O)[C@@H](NC(=O)c2cc3cc(C(=O)P(=O)(O)O)ccc3[nH]2)C1 (stereo partly shown) [Compound I-9] | 200 to 1000 |
| CC(=O)N1CC[C@H]2CC[C@@H](C(=O)N[C@@H](CCC(N)=O)C(=O)N[C@@H](Cc3ccc(F)c(F)c3)C(=O)N3CCC(CCC#Cc4ccc5c(c4)n(C)c(=O)n5C4CCC(=O)NC4=O)CC3)N2C(=O)[C@@H](NC(=O)c2cc3cc(C(F)(F)P(=O)(O)O)ccc3s2)C1 (stereo partly shown) [Compound I-10] | 50 to 200 |
| Cn1c(=O)n(C2CCC(=O)NC2=O)c2ccc(CCCC3CCN(C(=O)[C@H](Cc4ccc(F)c(F)c4)NC(=O)[C@H](CCC(N)=O)NC(=O)[C@@H]4CC[C@@H]5CCCC[C@H](NC(=O)c6cc7cc(C(F)(F)P(=O)(O)O)ccc7s6)C(=O)N54)CC3)cc21 (stereo partly shown) [Compound I-11] | 50 to 200 |
| Cn1c(=O)n(C2CCC(=O)NC2=O)c2ccc(CCCC3CCN(C(=O)[C@H](Cc4ccc(F)c(F)c4)NC(=O)[C@H](CCC(N)=O)NC(=O)[C@@H]4CC[C@@H]5CCCC[C@H](NC(=O)c6cc7cc(C(=O)P(=O)(O)O)ccc7[nH]6)C(=O)N54)CC3)cc21 (stereo partly shown) [Compound I-12] | 200 to 1000 |
| Cn1c(=O)n(C2CCC(=O)NC2=O)c2cccc(CCCC3CCN(C(=O)[C@H](Cc4ccc(F)c(F)c4)NC(=O)[C@H](CCC(N)=O)NC(=O)N4Cc5cccc6c5C4C(=O)[C@@H](NC(=O)c4cc5cc(C(=O)P(=O)(O)O)ccc5[nH]4)CC6)CC3)c21 (stereo partly shown) [Compound I-13] | 200 to 1000 |
| Cn1c(=O)n(C2CCC(=O)NC2=O)c2cccc(CCCC3CCN(C(=O)[C@H](Cc4ccc(F)c(F)c4)NC(=O)[C@H](CCC(N)=O)NC(=O)N4Cc5cccc6c5C4C(=O)[C@@H](NC(=O)c4cc5cc(C(F)(F)P(=O)(O)O)ccc5s4)CC6)CC3)c21 (stereo partly shown) [Compound I-14] | > 1000 |
| COC(=O)N1CC[C@H]2CC[C@@H](C(=O)N[C@@H](CCC(N)=O)C(=O)N[C@H](C(=O)N3CCC(CCCc4ccc5c(c4)n(C)c(=O)n5C4CCC(=O)NC4=O)CC3)C3CCCCC3)N2C(=O)[C@@H](NC(=O)c2cc3cc(C(F)(F)P(=O)(O)O)ccc3s2)C1 (stereo partly shown) [Compound I-15] | 200 to 1000 |
| COC(=O)N1CC[C@H]2CC[C@@H](C(=O)N[C@@H](CCC(N)=O)C(=O)N[C@H](C(=O)N3CCC(CCC#Cc4cccc5c4n(C)c(=O)n5C4CCC(=O)NC4=O)CC3)C3CCCCC3)N2C(=O)[C@@H](NC(=O)c2cc3cc(C(F)(F)P(=O)(O)O)ccc3s2)C1 (stereo partly shown) [Compound I-16] | 200 to 1000 |
| COC(=O)N1CC[C@H]2CC[C@@H](C(=O)N[C@@H](CCC(N)=O)C(=O)N[C@H](C(=O)N3CCC(CCCCc4cccc5c4n(C)c(=O)n5C4CCC(=O)NC4=O)CC3)C3CCCCC3)N2C(=O)[C@@H](NC(=O)c2cc3cc(C(F)(F)P(=O)(O)O)ccc3s2)C1 (stereo partly shown) [Compound I-17] | 200 to 1000 |
| COC(=O)N1CC[C@H]2CC[C@@H](C(=O)N[C@@H](CCC(N)=O)C(=O)N[C@H](C(=O)N3CCC(CCCc4ccc5c(c4)n(C)c(=O)n5C4CCC(=O)NC4=O)CC3)C3CCCCC3)N2C(=O)[C@@H](NC(=O)c2cc3cc(C(=O)P(=O)(O)O)ccc3[nH]2)C1 (stereo partly shown) [Compound I-18] | 200 to 1000 |
| COC(=O)N1CC[C@H]2CC[C@@H](C(=O)N[C@@H](CCC(N)=O)C(=O)N[C@H](C(=O)N3CCC(CCC#Cc4cccc5c4n(C)c(=O)n5C4CCC(=O)NC4=O)CC3)C3CCCCC3)N2C(=O)[C@@H](NC(=O)c2cc3cc(C(=O)P(=O)(O)O)ccc3[nH]2)C1 (stereo partly shown) [Compound I-19] | 200 to 1000 |
| COC(=O)N1CC[C@H]2CC[C@@H](C(=O)N[C@@H](CCC(N)=O)C(=O)N[C@H](C(=O)N3CCC(CCCCc4cccc5c4n(C)c(=O)n5C4CCC(=O)NC4=O)CC3)C3CCCCC3)N2C(=O)[C@@H](NC(=O)c2cc3cc(C(=O)P(=O)(O)O)ccc3[nH]2)C1 (stereo partly shown) [Compound I-20] | 200 to 1000 |
| CC(=O)N1CC[C@H]2CC[C@@H](C(=O)N[C@@H](CCC(N)=O)C(=O)N[C@H](C(=O)N3CCC(CCCCc4cccc5c4n(C)c(=O)n5C4CCC(=O)NC4=O)CC3)C3CCCCC3)N2C(=O)[C@@H](NC(=O)c2cc3cc(C(=O)P(=O)(O)O)ccc3[nH]2)C1 (stereo partly shown) [Compound I-27] | > 1000 |
| CC(=O)N1CC[C@H]2CC[C@@H](C(=O)N[C@@H](CCC(N)=O)C(=O)N[C@H](C(=O)N3CCC(CCC#Cc4cccc5c4n(C)c(=O)n5C4CCC(=O)NC4=O)CC3)C3CCCCC3)N2C(=O)[C@@H](NC(=O)c2cc3cc(C(=O)P(=O)(O)O)ccc3[nH]2)C1 (stereo partly shown) [Compound I-29] | > 1000 |
| CC(=O)N1CC[C@H]2CC[C@@H](C(=O)N[C@@H](CCC(N)=O)C(=O)N[C@H](C(=O)N3CCC(CCCc4ccc5c(c4)n(C)c(=O)n5C4CCC(=O)NC4=O)CC3)C3CCCCC3)N2C(=O)[C@@H](NC(=O)c2cc3cc(C(=O)P(=O)(O)O)ccc3s2)C1 (stereo partly shown) [Compound I-30] | > 1000 |
| CC(=O)N1CC[C@H]2CC[C@@H](C(=O)N[C@@H](CCC(N)=O)C(=O)N[C@H](C(=O)N3CCC(CCC#Cc4cccc5c4n(C)c(=O)n5C4CCC(=O)NC4=O)CC3)C3CCCCC3)N2C(=O)[C@@H](NC(=O)c2cc3cc(C(=O)P(=O)(O)O)ccc3s2)C1 (stereo partly shown) [Compound I-31] | 50 to 200 |
| CC(=O)N1CC[C@H]2CC[C@@H](C(=O)N[C@@H](CCC(N)=O)C(=O)N[C@H](C(=O)N3CCC(CCCCc4cccc5c4n(C)c(=O)n5C4CCC(=O)NC4=O)CC3)C3CCCCC3)N2C(=O)[C@@H](NC(=O)c2cc3cc(C(=O)P(=O)(O)O)ccc3s2)C1 (stereo partly shown) [Compound I-32] | 200 to 1000 |
